# Results taken from patent publication US10517889B2, “Modulators of SMAD7 expression” (Ionis Pharmaceuticals, Inc., priority 2017, dated 2019).
# Strand notation (5' to 3'): a small letter for the sugar, then the base; units joined by * are phosphorothioate-linked, units joined directly phosphodiester-linked; [ ] holds rarer units or linkages, { } end groups; capitals alone tell only the bases. e = 2'-O-(2-methoxyethyl) (MOE); [5mC] = 5-methylcytosine; d = 2'-deoxy (DNA)
# Test system: human SMAD7 mRNA
# Test: Antisense inhibition of human SMAD7 mRNA expression in Hep3B cells by 5-10-5 MOE gapmers, single concentration, electroporation, RT-PCR (Example 1, Study 1 and 2)
# Type: cell-based
# Settings: Study 2, electroporation with 15,000 nM antisense oligonucleotide, 5-10-5 MOE gapmers targeting SEQ ID NO: 1 and 2
# Outline: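 Readout is percent SMAD7 mRNA inhibition versus untreated cells, measured by qRT-PCR (RTS5062) and corrected for total RNA by RIBOGREEN. Oligonucleotide, 5,000 nM or 15,000 nM, was delivered by electroporation into Hep3B cells at 20,000 per well. RNA was collected about 24 h later.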
Substance,% inhibition of SMAD7 mRNA expression,% Inhibition
771684 (antisense eA*eT*eT*eT*eG*dG*d[5mC]*dA*dT*dT*dT*dG*dT*dT*dA*eT*eT*eT*eG*e[5mC]) [compound 771684],0%,
771686 (antisense eG*eT*eT*eT*eA*dT*d[5mC]*dT*dT*dT*dT*dT*dT*dA*dA*eT*eT*eT*eG*eG) [compound 771686],0%,
771687 (antisense e[5mC]*eT*eT*eG*eT*dG*dT*dT*dT*dA*dT*d[5mC]*dT*dT*dT*eT*eT*eT*eA*eA) [compound 771687],13%,
771692 (antisense e[5mC]*e[5mC]*e[5mC]*eA*eG*dG*dA*dG*dG*dG*dT*dA*dT*dG*d[5mC]*eA*e[5mC]*eA*e[5mC]*eT) [compound 771692],,18%
771694 (antisense e[5mC]*eT*e[5mC]*e[5mC]*e[5mC]*dA*dG*dG*dA*dG*dG*dG*dT*dA*dT*eG*e[5mC]*eA*e[5mC]*eA) [compound 771694],,0%
771695 (antisense eT*e[5mC]*eT*e[5mC]*e[5mC]*d[5mC]*dA*dG*dG*dA*dG*dG*dG*dT*dA*eT*eG*e[5mC]*eA*e[5mC]) [compound 771695],,22%
771700 (antisense eT*eA*eT*eG*e[5mC]*dA*d[5mC]*dA*d[5mC]*dT*d[5mC]*dT*d[5mC]*d[5mC]*d[5mC]*eA*eG*eG*eA*eG) [compound 771700],,9%
771702 (antisense eA*eG*eG*eG*eT*dA*dT*dG*d[5mC]*dA*d[5mC]*dA*d[5mC]*dT*d[5mC]*eT*e[5mC]*e[5mC]*e[5mC]*eA) [compound 771702],,24%
771703 (antisense eG*eG*eA*eG*eG*dG*dT*dA*dT*dG*d[5mC]*dA*d[5mC]*dA*d[5mC]*eT*e[5mC]*eT*e[5mC]*e[5mC]) [compound 771703],,31%
771707 (antisense eT*eT*eG*eT*eT*d[5mC]*d[5mC]*dT*d[5mC]*dT*dG*d[5mC]*dA*d[5mC]*d[5mC]*e[5mC]*eT*eG*eG*eG) [compound 771707],,42%
771708 (antisense eG*eG*eA*eT*eA*dA*dA*dA*dG*dG*dA*dA*dA*dG*dG*eA*eG*eT*eT*eT) [compound 771708],,0%
771710 (antisense eG*eG*eG*e[5mC]*eT*dG*d[5mC]*d[5mC]*d[5mC]*dA*dT*dT*d[5mC]*d[5mC]*dT*eA*eG*e[5mC]*eG*e[5mC]) [compound 771710],,40%
771716 (antisense eT*e[5mC]*eG*eA*eA*dT*d[5mC]*dA*d[5mC]*d[5mC]*d[5mC]*dT*dT*dT*d[5mC]*e[5mC]*eA*eT*eT*eA) [compound 771716],,24%
771718 (antisense eA*eA*eA*eG*eT*dT*d[5mC]*dT*dA*dG*dT*dG*dT*d[5mC]*dT*eA*e[5mC]*eT*e[5mC]*e[5mC]) [compound 771718],,29%
771719 (antisense eA*e[5mC]*eT*eG*eA*d[5mC]*dT*dT*dG*d[5mC]*dA*dG*dG*dT*dG*eA*e[5mC]*eT*eG*eG) [compound 771719],,35%
771723 (antisense e[5mC]*e[5mC]*eA*eA*eG*dG*dT*dT*dA*d[5mC]*dA*dT*dA*d[5mC]*dA*eA*e[5mC]*e[5mC]*eT*eG) [compound 771723],,44%

# Same assay, conditions: electroporation with 15,000 nM antisense oligonucleotide (Study 2), 5-10-5 MOE gapmers targeting SEQ ID NO: 1 and 2
Substance,% inhibition of SMAD7 mRNA expression,% Inhibition of SMAD7 mRNA
771682 (antisense eT*eG*eT*eT*eA*dT*dT*dT*dG*d[5mC]*dA*dT*dT*dT*dA*eT*eA*eT*eT*eA) [compound 771682],18%,
771688 (antisense e[5mC]*eG*eT*eT*eT*dA*dA*dT*dG*dG*dA*dA*d[5mC]*dA*dT*eA*eA*eA*e[5mC]*eT) [compound 771688],0%,13%
771689 (antisense eA*eG*eT*eG*eT*dA*d[5mC]*dA*dT*dT*dT*dT*dA*dA*dA*eA*eA*eT*e[5mC]*eG) [compound 771689],30%,
771696 (antisense e[5mC]*eT*e[5mC]*eT*e[5mC]*d[5mC]*d[5mC]*dA*dG*dG*dA*dG*dG*dG*dT*eA*eT*eG*e[5mC]*eA) [compound 771696],,0%
771712 (antisense eA*eT*eT*e[5mC]*eT*dT*dT*dT*dA*dG*d[5mC]*d[5mC]*d[5mC]*dA*dA*e[5mC]*eT*eG*eT*eT) [compound 771712],,27%
771720 (antisense e[5mC]*eA*eG*eG*e[5mC]*dA*dG*dA*dG*d[5mC]*dT*dA*dT*dG*d[5mC]*eT*eT*e[5mC]*eA*eA) [compound 771720],,37%

# Same assay, conditions: electroporation, 5,000 nM, approximately 24 hours, relative to untreated control cells, gapmers targeting SEQ ID NO: 1 and 2
row,Substance,% inhibition of SMAD7 mRNA expression
1,771707 (antisense eT*eT*eG*eT*eT*d[5mC]*d[5mC]*dT*d[5mC]*dT*dG*d[5mC]*dA*d[5mC]*d[5mC]*e[5mC]*eT*eG*eG*eG) [compound 771707],0%
2,771723 (antisense e[5mC]*e[5mC]*eA*eA*eG*dG*dT*dT*dA*d[5mC]*dA*dT*dA*d[5mC]*dA*eA*e[5mC]*e[5mC]*eT*eG) [compound 771723],0%

# Same assay, conditions: electroporation, 15,000 nM antisense oligonucleotide (Study 2), 5-10-5 MOE gapmers targeting SEQ ID NO: 1 and 2
row,Substance,% inhibition of SMAD7 mRNA expression
1,771690 (antisense e[5mC]*e[5mC]*eT*eA*eG*dT*dT*d[5mC]*dG*d[5mC]*dA*dG*dA*dG*dT*e[5mC]*eG*eG*e[5mC]*eT) [compound 771690],43%
2,771696 (antisense e[5mC]*eT*e[5mC]*eT*e[5mC]*d[5mC]*d[5mC]*dA*dG*dG*dA*dG*dG*dG*dT*eA*eT*eG*e[5mC]*eA) [compound 771696],0%
3,771697 (antisense e[5mC]*eA*e[5mC]*eT*e[5mC]*dT*d[5mC]*d[5mC]*d[5mC]*dA*dG*dG*dA*dG*dG*eG*eT*eA*eT*eG) [compound 771697],5%
4,771698 (antisense e[5mC]*eA*e[5mC]*eA*e[5mC]*dT*d[5mC]*dT*d[5mC]*d[5mC]*d[5mC]*dA*dG*dG*dA*eG*eG*eG*eT*eA) [compound 771698],43%
5,771706 (antisense eG*eG*eG*e[5mC]*e[5mC]*dT*dG*dG*dA*d[5mC]*d[5mC]*dA*dA*dA*dT*e[5mC]*e[5mC]*eA*eA*e[5mC]) [compound 771706],22%
6,771712 (antisense eA*eT*eT*e[5mC]*eT*dT*dT*dT*dA*dG*d[5mC]*d[5mC]*d[5mC]*dA*dA*e[5mC]*eT*eG*eT*eT) [compound 771712],3%
7,771713 (antisense eT*eG*e[5mC]*e[5mC]*eT*dA*d[5mC]*dA*d[5mC]*dA*d[5mC]*dA*dA*dA*dA*eA*eG*e[5mC]*e[5mC]*eA) [compound 771713],15%
8,771714 (antisense eT*e[5mC]*eT*eG*eG*dA*d[5mC]*dT*dA*dA*dA*dG*d[5mC]*dT*dT*e[5mC]*e[5mC]*eA*e[5mC]*eG) [compound 771714],44%
9,771720 (antisense e[5mC]*eA*eG*eG*e[5mC]*dA*dG*dA*dG*d[5mC]*dT*dA*dT*dG*d[5mC]*eT*eT*e[5mC]*eA*eA) [compound 771720],20%
10,771721 (antisense e[5mC]*e[5mC]*e[5mC]*eA*eG*d[5mC]*dA*d[5mC]*dT*dG*dT*dG*dA*dT*dG*eT*e[5mC]*e[5mC]*eA*eG) [compound 771721],43%
11,771722 (antisense eA*eG*eA*eG*eG*dG*dA*dG*d[5mC]*dT*d[5mC]*d[5mC]*dA*dG*dG*eA*eA*eT*eT*eT) [compound 771722],10%

# Same assay, conditions: electroporation, 15,000 nM, approximately 24 hours, relative to untreated control cells, gapmers targeting SEQ ID NO: 1 and 2
row,Substance,% inhibition of SMAD7 mRNA expression
1,771685 (antisense e[5mC]*eT*eT*eT*eT*dT*dT*dA*dA*dT*dT*dT*dG*dG*d[5mC]*eA*eT*eT*eT*eG) [compound 771685],17%
2,771693 (antisense eT*e[5mC]*e[5mC]*e[5mC]*eA*dG*dG*dA*dG*dG*dG*dT*dA*dT*dG*e[5mC]*eA*e[5mC]*eA*e[5mC]) [compound 771693],45%
3,771701 (antisense eG*eG*eT*eA*eT*dG*d[5mC]*dA*d[5mC]*dA*d[5mC]*dT*d[5mC]*dT*d[5mC]*e[5mC]*e[5mC]*eA*eG*eG) [compound 771701],34%
4,771709 (antisense eT*eG*eA*eA*e[5mC]*d[5mC]*d[5mC]*dT*d[5mC]*dA*d[5mC]*dA*dT*d[5mC]*dA*e[5mC]*eA*e[5mC]*eT*e[5mC]) [compound 771709],38%
